Experimental data taken from patent publication US20080051413A1, “Nitrophenylpiperazine derivative of xanthine which relaxes tracheal airway and increases respiratory performance” (KAOHSIUNG MEDICAL UNIVERSITY, priority 2006, published 2008).

Assays:
[1] = system: carbachol (1 _M)-precontracted guinea pig trachea; experiment: Isolated tracheal preparation, measurement of tension; conditions: 100 _M, carbachol (1 _M)-precontracted, EP+
Experimental: Isolated Tracheal preparation and Measurement of Tension: Guinea pigs (350-450 g) were anesthetized with pentobarbital (70 mg/kg) i.p. and killed by a sharp blow on the neck, followed by cervical dislocation. The trachea was excised, cleaned of adhering fat and connective tissue, cut transversely into four to five rings, and then opened by cutting longitudinally through the cartilage rings diametrically opposite the tracheal smooth muscle (Hwang T L, Wu C C, and Teng C M (1999) YC-1 potentiates nitric oxide-induced relaxation in guinea-pig trachea. Br J Pharmacol 128:577-584). Then trachea rings were suspended in a 10-ml organ bath containing Krebs' solution (118 mM NaCl, 25 mM NaHCO3, 4.7 mM KCl, 1.2 mM KH2PO4, 1.2 mM MgSO4, 11 mM glucose, and 2.5 mM CaCl2, pH 7.3-7.4) maintained at 37_and aerated with 95% O2 and 5% CO2. Each tracheal tissue sample was subjected to 2 g of initial basal tension. All experiments were carried out in the presence of indomethacin (3 _M) and propranolol (1 _M) to prevent the formation of prostanoids and to inhibit _-adrenergic responses, respectively. Isometric tension was recorded with a force displacement transducer (model FT03; Grass Instruments, Quincy, M A). Before the start of measurements, all preparations were allowed to equilibrate with frequent washing for 1 h. They were first contracted with carbachol (1 _M) to determine the contractility of preparations. This was also done at the end of each experiment. The preparations were then washed and allowed to equilibrate with Krebs' solution for 50 min before being contracted a second time with carbachol (1 _M). When stable constriction to carbachol was reached, concentration responses of KMUP-3 (10, 30, and 100 _M) were obtained. Data were expressed as percentages of the maximum contractile response to carbachol (1 _M).
In experiments to examine the role of epithelium in tracheal relaxation, the epithelial cells were removed mechanically by rubbing the internal surface of trachea with a fine silver wire, and the removal of the epithelial layer was confirmed by histological examination as previously described (Wu et al., 2004).
To examine the possible mechanism of tracheal relaxant effects of KMUP-3, the tracheal strips were pretreated with a K^+ channel blocker, tetraethylammonium (TEA; 10 mM); a KATP channel blocker, glibenclamide (1-M); voltage-dependent K^+ channel blocker, 4-aminopyridine (4-AP, 100 _M); Ca^2+-dependent K^+ channel blockers, apamin (1 _M) and charybdotoxin (ChTX; 0.1 _M); a sGC inhibitor, 1H-[1,2,4]oxadiazolo[4,3-a]quinoxalin-1-one (ODQ; 1 _M); an NOS inhibitor, N—nitro-L-arginine methyl ester (L-NAME; 100 _M); and an adenylate cyclase (AC) inhibitor, SQ 22536 (100 _M) for 30 min prior to the addition of KMUP-3 (10, 30, and 100 _M). In the other experiments, TSMs were precontracted with 60 mM KCl to examine the relaxation achieved by KMUP-3. The KCl solution was prepared by substituting NaCl with KCl (60 mM) in an equimolar amount.

[2] = system: cultured guinea pig tracheal smooth muscle cells; experiment: Expression of PKA and PKG (Western blot); type: cell-based; conditions: 1 _M, 30 min
Experimental: (§1) Cell Culture of Tracheal Smooth Muscle: Guinea pigs (350-450 g) were injected i.p. with a lethal dose of pentobarbital. The tracheas were excised and cut longitudinally through the cartilage. Using a dissecting microscope, TSM strips were dissected from the surrounding parentchyma. The epithelium was removed from the luminal surface, and bands of TSM were gently separated from the underlying connective tissue. Then TSM strips were chopped into small sections (1 mm^3) and incubated in Hanks' balanced salt solution (138 mM NaCl, 4 mM NaHCO3, 5 mM KCl, 0.3 mM KH2PO4, 0.3 mM Na2HPO4, and 1.0 mM glucose) with 0.05% elastase type IV and 0.2% collagenase type IV (Invitrogen, Carlsbad, Calif.) for 30 min at 37_ with gentle shaking. The solution of dissociated smooth muscle cells was centrifuged (6 min at 500 g), and the pellet was resuspended in 1:1 Dulbecco's modified Eagle's medium/Ham's F-12 medium supplemented with 10% fetal bovine serum, 0.244% NaHCO3, and 1% penicillin/streptomycin. Cells were cultured in 25-cm^2 flasks at 37_ in humidified air containing 5% CO2. Confluent cells were detached with 0.25% trypsin-0.02% EDTA at 37_and then subcultured to establish secondary cultures. Cultures were maintained for no more than four passages. They were identified as smooth muscle cells by the typical hill-and-valley appearance, and cellular homogeneity was further confirmed by the presence of smooth muscle specific _-myosin and _-actin immunoreactivity. Indirect immunofluorescence staining for a variety of antigens was carried out by first plating the cells on chamber slides, fixing the cells in 3.7% formaldehyde-phosphate-buffered saline for 10 min, and permeabilizing the cells with phosphate-buffered saline and 0.1% Triton X-100. Cells were then stained with either a mouse monoclonal antibody directed against the amino-terminal 10 amino acids of _-smooth muscle actin or _-myosin (Roche Diagnostics, Indianapolis, Ind.). All cells were stained with fluorescein-labeled goat anti-mouse IgG antibody (Roche Diagnostics).
Expression of PKA and PKG: The expression of PKA and PKG was determined by Western blot as previously described by Wu et al. and Murthy et al. (Wu B N, Lin R J, Lo Y C, Shen K P, Wang C C, Lin Y T, and Chen I J (2004) KMUP-1, a xanthine derivatives, induces relaxation of guinea-pig isolated trachea: the role of the epithelium, cyclic nucleotides and K^+ channels. Br J Pharmacol 142:1105-1114; Murthy K S, Zhou H, and Makhlouf G M (2002) PKA-dependent activation of PDE3A and PDE4 and inhibition of adenylyl cyclase V/VI in smooth muscle. Am J Physiol 282:C508-C517). Guinea pig TSMCs were incubated with KMUP-3 for 30 min. Each of the cell lysates, each containing 1 _g of cellular protein, was electrophoresed in 7.5% SDS-polyacrylamide gel electrophoresis and then transferred to polyvinylidene diflouride membrane (Millipore Corporation, Billerica, Mass.). The membrane was stained with Ponceau S to verify the integrity of the transferred proteins and to monitor the unbiased transfer of all protein samples. The membrane was then washed with 25 ml of TBS (100 mM NaCl, 0.1% and 10 mM Tris-HCl, pH 7.5) for 5 min at room temperature and incubated in 25 ml of blocking buffer (TBS plus 0.1% Tween 20 and 5% nonfat milk) overnight at 4_. In the measurement of protein, the membrane was incubated with appropriate PKARI or PKA1—1— primary antibody (diluted 1:250) in 2 ml of blocking buffer for 1 h at room temperature, washed three times for 5 min each with 15 ml of Tris-buffered saline/Tween 20 (TBS plus 0.1% Tween 20), incubated with horseradish peroxidase-conjugated secondary antibody (1:10,000) in 15 ml of blocking buffer with gentle agitation for 1 h at room temperature, and finally washed three times for 5 min each time with 15 ml of Tris-buffered saline/Tween 20. The membrane was then subjected to enhanced chemiluminescence (GE Healthcare) for the detection of the specific antigen.

[3] = system: PDE4 purified from human U-937 pronocytic cells; experiment: Phosphodiesterase activity, PDE4; type: biochemical; conditions: 10 _M compound, n = 3
Experimental: Phosphodiesterase Activity: PDE activity was determined by the method of Nicholson et al. (Nicholson C D, Challiss R A, and Shahid M (1991) Differential modulation of tissue function and therapeutic potential of selective inhibitors of cyclic nucleotide phosphodiesterase isonzymes. Trends Pharmaclo Sci 12:19-27). PDE3 and PDE5 purified from human platelets and PDE4 purified from human U-937 pronocytic cells were used. Test compound (10 _M) or vehicle was incubated with 0.2 _g of enzyme and 1 _M cAMP containing 0.01 _M [^3H]cAMP in Tris buffer, pH 7.5, for 20 min at 25_. The reaction was terminated by boiling for 2 min, and the resulting […] was converted to adenosine by the addition of 10 mg/ml snake venom nucleotidase, which is followed by a further incubation at 37_for 10 min. Unhydrolyzed cAMP was bound to AG1-X2 resin, and the remaining [^3H]adenosine in the aqueous phase was quantitated by scintillation counting.

[4] = system: guinea pig tracheal smooth muscle cells; experiment: Measurement of cAMP in TSMCs; type: cell-based; conditions: for cAMP accumulation versus vehicle (FIG. 6) / cAMP level: 100 _M, 20 min; for cAMP level: basal/vehicle 62.6±6.4
Experimental: as §1
(§2) Measurement of cAMP and cGMP: Intracellular concentrations of cAMP and cGMP in TSMCs were measured as in our previous reports (Wu B N, Lin R J, Lin C Y, Shen K P, Chiang L C, and Chen I J (2001) A xanthine-based KMUP-1 with cyclic GMP enhancing and K^+ channels opening activities in rat aortic smooth muscle. Br J Pharmacol 134:265-274; Lin R J, Wu B N, Lo Y C, Shen K P, Lin Y T, Huang C H, and Chen I J (2002) KMUP-1 relaxes rabbit corpus cavernosum smooth muscle in vitro and in vivo: involvement of cyclic GMP and K(+) channels, Br J Pharmacol 135:1159-1166). In brief, cells were finally grown in 24-well plates (10^5 cells/well). At confluence, monolayer cells were washed with phosphate-buffered saline and then incubated with KMUP-3 (0.01-100 _M) for 20 min at 37_ in medium. […] The reaction was terminated by replacement of medium with 1 ml of ice-cold 1 N hydrochloric acid. Cells suspensions were sonicated and then centrifuged at 2500 g for 15 min at 4_. Then, the supernatants were lyophilized and the cAMP and cGMP of each sample were determined using commercially available radioimmunoassay kits (GE Healthcare, Little Chalfont, Buckinghamshire, UK).

[5] = system: guinea pig tracheal smooth muscle cells; experiment: Measurement of cGMP in TSMCs; type: cell-based; conditions: for amounts of cGMP versus vehicle (FIG. 6): 100 _M, 20 min
Experimental: as §1, §2

SMILES | relaxation in epithelium-intact trachea (FIG. 3(B)) [1] | cAMP accumulation versus vehicle (FIG. 6) [4] | amounts of cGMP versus vehicle (FIG. 6) [5] | also measured
CC(C)Cn1c(=O)n(C)c(=O)c2[nH]cnc21 [IBMX, 3-isobutyl-1-methylxanthine, reference compound] | cause relaxations | – | – | –
Nc1ncnc2c1nc(Br)n2[C@@H]1O[C@@H]2COP(=O)(O)O[C@H]2[C@H]1O [8-Br-cAMP, reference compound] | – | – | – | expression of immunoreactive PKARI protein (FIG. 7(A)) [2]: increased the expression of PKARI
CC1(C)Oc2ccc(C#N)cc2[C@@H](N2CCCC2=O)[C@@H]1O [levcromakalim, reference compound] | displayed relaxation effects | – | – | –
Cn1c(=O)c2[nH]cnc2n(C)c1=O [theophylline, reference compound] | cause relaxations | significant elevations | significantly enhances | PDE4 Inhibition [3]: 7.9±1.2%
C=C[C@@]1(C)CC(=O)[C@]2(O)[C@@]3(C)[C@@H](O)CCC(C)(C)[C@@H]3[C@H](O)[C@H](OC(C)=O)[C@@]2(C)O1 [Forskolin, forskolin, reference compound] | – | – | – | cAMP level in presence of SQ 22536 ([4]; 100 _M compound plus SQ 22536 (100 _M) pretreatment): 94.33 ± 3.42 pmol/mg protein; cAMP level [4]: 119.15 ± 5.11 pmol/mg protein
CCCOc1ccccc1-c1nc2nn[nH]c2c(=O)[nH]1 [zaprinast, reference compound] | cause relaxations | not so | significantly enhances | –
O=c1onc2cnc3ccccc3n12 [ODQ, 1H-[1,2,4]oxadiazolo[4,3-a]quinoxalin-1-one, reference compound] | – | – | – | Cyclic GMP level ([5]; 10 _M (ODQ alone), vehicle 1.18 ± 0.06): 1.12 ± 0.03 pmol/mg protein
Nc1ncnc2c1ncn2C1CCCO1 (stereo not drawn) [SQ 22536, reference compound] | – | – | – | cAMP level [4]: 74.32 ± 7.56 pmol/mg protein
Cc1[nH]c(=O)c(C#N)cc1-c1ccncc1 [milrinone, reference compound] | cause relaxations | significant elevations | not observed | –
COc1ccc(C2CNC(=O)C2)cc1OC1CCCC1 (stereo not drawn) [rolipram, reference compound] | cause relaxations | significant elevations | not observed | –
Nc1nc2c(nc(Br)n2[C@@H]2O[C@@H]3COP(=O)(O)O[C@H]3[C@H]2O)c(=O)[nH]1 [8-Br-cGMP, reference compound] | – | – | – | expression of PKA1—1— (FIG. 7(B)) [2]: increased the expression of PKA1—1—
